The text below walks through data of ChEMBL document CHEMBL5244244, “Fight against novel coronavirus: A perspective of medicinal chemists” (Eur J Med Chem, 2020).

In data set [1] the target is Replicase polyprotein 1ab (Severe acute respiratory syndrome coronavirus 2, UniProt P0DTD1). The experiment in a line: Inhibition of SARS-CoV-2 main protease.
In data set [2] the test system is SARS-CoV-2. Put plainly: Antiviral activity against SARS-CoV-2 2019BetaCoV/Wuhan/WIV04/2019 infected in African green monkey Vero E6 cells assessed as inhibition of viral replication measured after 48 hrs. Type of data set: functional, organism-based. As to conditions: Severe acute respiratory syndrome coronavirus 2, 2019BetaCoV/Wuhan/WIV04/2019, Vero C1008, 48 h.

The nature of data set [3]: Cytotoxicity against African green monkey Vero E6 cells assessed as reduction of cell viability measured after 48 hrs by CCK-8 assay. Type of data set: toxicity, cell-based, Vero C1008. As to conditions: chlorocebus sabaeus.
Data set [4] concerns SARS-CoV-2. Put plainly: Antiviral activity against SARS-CoV-2 infected in African green monkey Vero cells assessed as inhibition of viral replication. As to conditions: Severe acute respiratory syndrome coronavirus 2, Vero. The format is functional, organism-based.
A short description of data set [5]: Cytotoxicity against african green monkey Vero cells. Type of data set: toxicity, cell-based. As to conditions: chlorocebus sabaeus.
Data set [6] is described as follows: Selectivity index, ratio of CC50 for African green monkey Vero cells to EC50 for antiviral activity against SARS-CoV-2. Type of data set: toxicity. As to conditions: read-out: Selectivity Index.
Data set [7] is described as follows: Selectivity index, ratio of CC50 for African green monkey Vero E6 cells to EC50 for antiviral activity against SARS-CoV-2 2019BetaCoV/Wuhan/WIV04/2019. The format is toxicity, Vero C1008. Particulars: read-out: Selectivity Index.

SMILES strings stand for the structures.

`Cc1cccc(C)c1OCC(=O)N[C@@H](Cc1ccccc1)[C@@H](O)C[C@H](Cc1ccccc1)NC(=O)[C@H](C(C)C)N1CCCNC1=O` [LOPINAVIR] gave an IC50 in data set [1] of 9.12 µM.

`O=C(Nc1ccc([N+](=O)[O-])cc1Cl)c1cc(Cl)ccc1O` [NICLOSAMIDE]: the concentration for a half-maximal effect (EC50) in data set [2] turned out to be 2120 nM. For the same molecule, in data set [3], the CC50 at 48 h is over 35.5 µM.

On to `N=C(N)c1ccc2cc(OC(=O)c3ccc(N=C(N)N)cc3)ccc2c1` [NAFAMOSTAT], for which the EC50 in data set [4] is 22.5 µM. Moreover, the half-maximal cytotoxic concentration (CC50) in data set [5] is over 100 µM. In data set [6], the selectivity ratio came to 4.44.

In the case of `Nc1nc2c(ncn2CCC(CO)CO)c(=O)[nH]1` [PENCICLOVIR], the CC50 at 48 h in data set [3] is over 400 µM. In data set [7], the selectivity ratio was over 4.17.

With `CCN(CC)CCCC(C)Nc1ccnc2cc(Cl)ccc12` (stereo not drawn) [CHLOROQUINE], the half-maximal effective concentration (EC50) in data set [2] worked out at 1130 nM. The half-maximal cytotoxic concentration (CC50) at 48 h in data set [3] is over 100 µM.

Consider `NC(=O)c1nc(F)c[nH]c1=O`, for which the CC50 at 48 h in data set [3] was over 400 µM. Besides, in data set [7], the selectivity ratio was over 6.46.

With `NC(=O)c1ncn([C@@H]2O[C@H](CO)[C@@H](O)[C@H]2O)n1` [RIBAVIRIN], the CC50 at 48 h in data set [3] is over 400 µM.
